Source: US6133264A, “Carbostyril derivatives for inhibiting skin erythema and/or skin pigmentation” (Otsuka Pharmaceutical Co., Ltd., priority 1997, dated 2000)
Structures can show the parent of a compound that is named as a salt.

Legend:
[1] = DPPH free radical extinction activity test; type: biochemical; details: relative to α-tocopherol (= 2); 5 μl of 10 mM test compound, 30° C., 30 minutes, pH 5.5 buffer, 517 nm
Experimental: (1) DPPH free radical extinction activity test
The test was conducted by procedures according to the method by Marsden S. Blois [Nature, Vol. […], 1199-1200, (1958)].
Into 0.5 ml of 200 mM of acetic acid buffer solution (pH 5.5) were added 0.5 ml of distilled water, 0.5 ml of ethanol and 5 μl of 10 mM of the test compound solution (an ethanol solution, a dimethylformamide solution or an aqueous solution), and stirred at 30° C. for 5 minutes. To this mixed solution was added 1.5 ml of an ethanol solution of 250 μM of 1,1-diphenyl-2-picrylhydrazyl (DPPH), this mixture was incubated at 30° C. for 30 minutes. After the incubation, the optical absorbance (at 517 nm) of this reaction mixture was measured, and the number of captured free radicals of DPPH was calculated from the ratio of optical absorbance of test compound and that of α-tocopherol (standard substance: the number of captured free radicals: 2) by the following formula: […]
Number of captured free radicals of DPPH performed by test
(A): optical absorbance of the test sample, and
(B): optical absorbance of α-tocopherol].

skin erythema (sunburn) = test: Effect for preventing skin sunburn caused by UV rays irradiation (in vivo); set-up: species or system albino guinea pig (Hartley strain, female); details: 3% test compound solution, 24 hours after UV irradiation; for (C): Δa value of test section of skin coated with test compound solution: 10 μl; for inhibition in vivo at 3 %: Cavia porcellus, light or radiation study, topical, 24 h, read-out: Inhibitory ratio of skin erythema (%); for inhibition in vivo at 3 % / Inhibitory ratio of skin erythema (%): {1-[(C)/(D)]}×100
Experimental: (2) Effect for preventing skin sunburn caused by UV rays irradiation (in vivo)
This test is an experimental model of quantitative evaluation of effect for preventing skin sunburn, caused by UV rays irradiation, performed by the test compound. [Test was conducted by a modified method according to the procedures of J. Dermatol. Vol. 17, pp. 595-598, (1990).]
Hairs on the back of an albino guinea pig (Hartley strain, female, age of 7-8 weeks) were shaved by use of an electric hair clipper and an electric shaver. Next day, the guinea pig was fixed on a Bowlman cage, a piece of shading tape (a plaster for patch test) having 4 circular holes of 1.5 cm in diameter was put on the shaved portion of the skin, and predetermined 2 sections of UV rays irradiation. One section (reference section) was coated with 10 μl of a solvent (water or 50% ethanol-water solution). Another section (test section) was coated with 10 μl of 3% test compound solution (aqueous or 50% ethanol-water solution). 30 Minutes after the coating, UV rays of 1.3-1.5 mW/cm^2 in strength was irradiated for 30 minutes by use of a fluorescent lamp of healthy light (TOSHIBA FL-20.cndot.SE) as a light source. 24 Hours after the irradiation, the reference section (coated with the solvent only) and the test section (coated with test compound solution) were observed respectively, and the erythrochromia (Δa value) on both reference section and test section were measured by use of a color difference meter (OFC-300A Type, mfd. by NIHON DENSHOKU KOGYO CO., LTD). The inhibitory ratio of skin erythema (sunburn) performed by the test compound was calculated from the following formula.
Inhibitory ratio of skin erythema (sunburn) (%)={1-[(C)/(D)]}×100
(C): Δa Value of test section of skin coated with test compound solution,
(D): Δa Value of reference section of skin coated with the solvent only, and
Δa value: difference of skin erythema on the portion irradiated with UV rays].

[2] = system: skin reaction (erythema and edema); test: Skin sensitization test (Adjuvant and strip test), photosensitization; type: in vivo, Albino guinea pigs (Hertley strain, female); details: 3% test compound solution, open-coated; observed 24 hours and 48 hours; [(G)/(H)]×100
Description: (4) Skin sensitization test [Adjuvant and strip test: J. Invest. Dermatol., Vol. 76, pp 498-501, (1981)]
This test was used as experimental model for evaluating the existence of toxicity of photosensitization to the skin performed by the test compounds.
(i) Procedure for inducing photosensitization
Albino guinea pigs (Hertley strain, female, age of 5-6 weeks) were used. Hairs of the nuchal area of the guinea pig were shaved, and designated the test sample coating section having 2×4 cm in size. At the four corners of the test sample coating section, 0.1 ml each of E-FCA (an emulsion consisting of the same volume each of Freund's complete adjuvant with sterilized distilled water) were intracutaneouly injected. The coating section was subjected to striping repeatedly by use of Cellophane tape until the section turned to slightly erythema, then 0.1 ml of test compound solution (aqueous or 50% ethanol-water solution) of 3% in concentration was open-coated on the section. 30 Minutes after the coating, UV rays of about 10 J/cm^2 in dosage was irradiated by use of a fluorescent lamp of healthy light (TOSHIBA FL-20S-BLB) as a light source. The above-mentioned procedure was carried out once a day, and continuously conducted for 5 days, provided that E-FCA was administered only on the first day.
(ii) Procedure for introducing sensitization
3 Weeks after the beginning of induction period of photosensitization, the covering hairs on the back of guinea pig were shaved, and determined a circular section, having 1.5 cm in diameter, for coating test samples, and 20 μl of test compound solution (aqueous or 50% ethanol-water solution) of 3% in concentration was open-coated on the section. The test sample coated section was observed 24 hours and 48 hours, and examined existences of skin reaction (erythema and edema). In case of skin reaction was appeared, then it was determined as positive reaction in skin sensitization which was defined as a positive ratio (%) calculated from the following formula.
Positive ratio (%)=[(G)/(H)]×100
(G): Number of positive reactions in skin sensitization and
(H): Number of total animal tests].

skin pigmentation = test: Effect for preventing skin pigmentation caused by UV rays irradiation; type: in vivo, colored guinea pig (A-1 strain, female); details: 3% test compound solution, 14 days after UV irradiation; for (E): ΔL value of brightness of the skin coated with test compound solution (test section): 10 μl/cm^2; for Inhibitory ratio of skin pigmentation (%): {1-[(E)/(F)]}×100
Experimental: (3) Effect for preventing skin pigmentation caused by UV rays irradiation This is an experimental model of quantitative evaluation of effect for preventing skin pigmentation caused by UV rays irradiation performed by test compound. [Test was conducted by a modified method according to procedures of J. Dermatol. Vol. 17, pp. 595-598,(1990).] Hairs on the back of a colored guinea pig (A-1 strain, female, age of 8-10 weeks) were shaved and the body of guinea pig was fixed on a Bowlman cage, and predermined 2 sections of UV rays irradiation. […] The inhibitory ratio of the skin pigmentation (%) performed by the test compound was calculated from the following formula. […] [wherein (E): ΔL value of brightness of the skin coated with test compound solution (test section), (F): ΔL value of brightness of the skin coated the solvent (reference section), and ΔL value: difference of brightness of the skin between the portion without irradiated and the portion irradiated with UV rays].

[3] = assigned value of the standard α-tocopherol; cited from earlier work

SMILES | Number of captured free radicals of DPPH [1] | (C): Δa value of test section of skin coated with test compound solution (skin erythema (sunburn)) | inhibition in vivo at 3 % (skin erythema (sunburn)) [%] | Positive ratio (%) [2] [%] | (E): ΔL value of brightness of the skin coated with test compound solution (test section) (skin pigmentation) | Inhibitory ratio of skin pigmentation (%) (skin pigmentation) | Inhibitory ratio of skin erythema (%) (skin erythema (sunburn)) | number of captured free radicals (standard substance) [3]
Cl.O=c1ccc2c(CN3CCCC3)c(O)ccc2[nH]1 [Example 22, 6-hydroxy-5-(1-pyrrolidinyl)methyl-2(1H)-quinolinone hydrochloride] | 1.5 | 5.51 ± 2.32 | 37 | 0 |  |  |  | 
CCN(CC)Cc1ccc2c(c1O)CCC(=O)N2 [Example 13, 6-diethylaminomethyl-5-hydroxy-3,4-dihydrocarbostyril] | 1 | 3.93 ± 0.92 | 42 | 0 |  |  |  | 
CCN(CC)Cc1cc(C)c2c(c1O)CCC(=O)N2 [Example 9, 5-Hydroxy-6-diethylaminomethyl-8-methyl-3,4-dihydro-2(1H)-quinolinone] | 1 | 4.69 ± 1.62 | 38 | 0 |  |  |  | 
COc1cc(CN(C)C)c(O)c2c1NC(=O)CC2.Cl [Example 35, 6-(dimethylaminomethyl)-3,4-dihydro-5-hydroxy-8-methoxy-2(1H)-quinolinone hydrochloride] | 1.5 | 3.61 ± 2.91 | 51 | 0 | -4.44 ± 2.17 | 35 |  | 
Cc1cc2c(c(CN3CCCC3)c1O)NC(=O)CC2 [Example 25] | 1 | 3.31 ± 2.00 | 64 | 0 | -5.02 ± 2.02 | 38 |  | 
C=CCOc1cc(CN2CCCCC2)c(O)c2c1NC(=O)CC2 [Example 33] | 1.5 | 3.96 ± 1.02 |  | 0 | -2.61 ± 2.98 | 55 | 49 | 
Cc1c(C)c2c(c(C)c1O)CCC(C)(CCCC(C)CCCC(C)CCCC(C)C)O2 (stereo not drawn) [α-tocopherol] |  |  |  |  |  |  |  | 2
C=CCOc1cc(CN2CCCCC2)c(O)c2c1N(CC=C(C)C)C(=O)CC2 [Example 32] | 1 | 2.17 ± 0.97 | 64 | 0 | -3.37 ± 2.36 | 42 |  | 
CCCOc1cc(CN2CCCCC2)c(O)c2c1NC(=O)CC2.Cl [Example 30, 3,4-dihydro-8-propyloxy-5-hydroxy-6-(1-piperidinyl)methyl-2(1H)-quinolinone hydrochloride] | 2 | 4.73 ± 1.94 | 40 | 0 | -3.40 ± 1.18 | 50 |  | 
O=C1CCc2c(O)c(CN3CCCC3)cc(OC3CCCCO3)c2N1 (stereo not shown) [Example 47] | 3.5 | 0.88 ± 0.29 | 76 | 0 | -4.89 ± 1.24 | 38 |  | 
C=CCOc1cc(CN2CCCCC2)c(O)c2c1NC(=O)CC2 [Example 28, 8-allyloxy-3,4-dihydro-5-hydroxy-6-(1-piperidinyl)methyl-2(1H)-quinolinonehydrochloride] | 2 | 1.13 ± 0.58 |  | 0 | -4.51 ± 1.87 | 43 | 78 | 
C=CCOc1cc(CN(C)C)c(O)c2c1NC(=O)CC2 [Example 18, 8-allyloxy-3,4-dihydro-5-hydroxy-6-dimethyl-aminomethyl-2(1H)-quinolinone hydrochloride] | 1.5 | 3.87 ± 2.45 | 51 | 0 | -3.53 ± 1.24 | 49 |  | 
